Source: ChEMBL document CHEMBL5584295, “Formononetin Derivative for Osteoporosis by Simultaneous Regulating Osteoblast and Osteoclast” (J Nat Prod, 2024)
Calls of active or inactive are those of the source. No cut-off for these calls is given here.

Tests used:
[1] = Induction of osteogenesis in Wistar rat bone marrow-derived MSC assessed as increase in bone formation by measuring fold change at 0.4 uM measured after 14 days with fresh culture medium replacement for every 3 days by Alizarin red staining based analysis; assay type: functional; settings: time 14 day
[2] = Cytotoxicity against Wistar rat bone marrow-derived MSC assessed as reduction in cell viability at 0.4 to 10 uM after 72 hrs by MTS assay; assay type: toxicity, cell-based; settings: dose 0.4-10 µM
[3] = Induction of osteogenesis in Wistar rat bone marrow-derived MSC assessed as increase in bone formation by measuring fold change at 1 uM measured after 14 days with fresh culture medium replacement for every 3 days by Alizarin red staining based analysis; assay type: functional; settings: time 14 day
MSC [4] = experiment: Induction of osteogenesis in Wistar rat bone marrow-derived MSC assessed as increase in ALP at 1 uM measured after 1 week with fresh culture medium replacement for every 3 days by ALP staining based analysis; assay type: functional, cell-based; settings: time 1.0 weeks
RAW264.7 [5] = experiment: Inhibition of RANKL-induced osteoclastogenesis in mouse RAW264 cells assessed as number of osteoclast at 1 uM incubated for 5 days by TRAP staining based microscopic analysis (reference value: 95); assay type: functional; settings: time 5 day
MSC [6] = experiment: Induction of osteogenesis in Wistar rat bone marrow-derived MSC assessed as increase in calcium nodes at 1 uM measured after 14 days with fresh culture medium replacement for every 3 days by Alizarin red staining based analysis; assay type: functional, cell-based; settings: time 14.0 day
MSC [7] = experiment: Induction of osteogenesis in Wistar rat bone marrow-derived MSC assessed as increase in increase in calcium nodes at 0.4 uM measured after 14 days with fresh culture medium replacement for every 3 days by Alizarin red staining based analysis; assay type: functional, cell-based; settings: time 14.0 day
Mus musculus [8] = experiment: Anti-osteoporosis activity in OVX-induced osteoporosis ICR mouse model assessed as increase in bone mineral density by measuring fold change in femur at 10 mg/kg, ip and measured after 12 weeks by micro-CT analysis; assay type: functional
Mus musculus [9] = experiment: Anti-osteoporosis activity in OVX-induced osteoporosis ICR mouse model assessed as decrease in trabecular spacing by in femur at 20 mg/kg, IG and measured after 12 weeks by micro-CT analysis relative to control; assay type: functional
MSC [10] = experiment: Activation of BMP/Smad signaling pathway in Wistar rat bone marrow-derived MSC assessed as increase in smad9 mRNA expression at 0.4 uM incubated for 14 days by RT-qPCR analysis; assay type: cell-based; settings: filed as activator, time 14.0 day
RAW264.7 [11] = experiment: Inhibition of RANKL-induced osteoclastogenesis in mouse RAW264 cells assessed as number of osteoclast at 10 uM incubated for 5 days by TRAP staining based microscopic analysis (reference value: 95); assay type: functional; settings: time 5 day
RAW264.7 [12] = experiment: Inhibition of RANK/RANKL/OPG signaling pathway in RANKL-stimulated mouse RAW264.7 cells assessed as increase in OPG protein expression level at 1 uM after 5 days by Western blot analysis; assay type: cell-based; settings: time 5.0 day
RAW264.7 [13] = experiment: Cytotoxicity against mouse RAW264.7 cells assessed as reduction in cell viability at 1 to 10 uM after 72 hrs by MTS assay; assay type: toxicity, cell-based; settings: raw264.7, 72 h, dose 1-10 µM
Mus musculus [14] = experiment: Anti-osteoporosis activity in OVX-induced osteoporosis ICR mouse model assessed as increase in trabecular number by measuring fold change in femur at 10 mg/kg, ip and measured after 12 weeks by micro-CT analysis; assay type: functional
MSC [15] = experiment: Activation of BMP/Smad signaling pathway in Wistar rat bone marrow-derived MSC assessed as increase in bmp2 mRNA expression at 0.4 uM incubated for 14 days by RT-qPCR analysis; assay type: cell-based; settings: filed as activator, time 14.0 day
Mus musculus [16] = experiment: Anti-osteoporosis activity in OVX-induced osteoporosis ICR mouse model assessed as increase in trabecular thickness by measuring fold change in femur at 10 mg/kg, ip and measured after 12 weeks by micro-CT analysis; assay type: functional
Mus musculus [17] = experiment: Anti-osteoporosis activity in OVX-induced osteoporosis ICR mouse model assessed as increase in BV/TV by measuring fold change in femur at 10 mg/kg, ip and measured after 12 weeks by micro-CT analysis; assay type: functional
RAW264.7 [18] = experiment: Inhibition of RANK/RANKL/OPG signaling pathway in RANKL-stimulated mouse RAW264.7 cells assessed as increase in c-Jun protein expression level at 1 uM after 5 days by Western blot analysis; assay type: cell-based; settings: time 5.0 day
RAW264.7 [19] = experiment: Inhibition of RANKL-induced osteoclastogenesis in mouse RAW264 cells assessed as number of osteoclast at 5 uM incubated for 5 days by TRAP staining based microscopic analysis (reference value: 95); assay type: functional; settings: time 5 day
Mus musculus [20] = experiment: Anti-osteoporosis activity in OVX-induced osteoporosis ICR mouse model assessed as decrease in trabecular spacing by in femur at 10 mg/kg, ip and measured after 12 weeks by micro-CT analysis relative to control; assay type: functional; design: scale not given: the % may be the effect or the level left
RAW264.7 [21] = experiment: Inhibition of RANK/RANKL/OPG signaling pathway in mouse RAW264.7 cells assessed as decrease in RANKL-stimulated RANK protein expression level at 1 uM after 5 days by Western blot analysis; assay type: cell-based; settings: time 5.0 day
MSC [22] = experiment: Activation of BMP/Smad signaling pathway in Wistar rat bone marrow-derived MSC assessed as increase in alp mRNA expression at 0.4 uM incubated for 14 days by RT-qPCR analysis; assay type: cell-based; settings: filed as activator, time 14.0 day
MSC [23] = experiment: Activation of BMP/Smad signaling pathway in Wistar rat bone marrow-derived MSC assessed as increase in smad4 mRNA expression at 0.4 uM incubated for 14 days by RT-qPCR analysis; assay type: cell-based; settings: filed as activator, time 14.0 day
MSC [24] = experiment: Activation of BMP/Smad signaling pathway in Wistar rat bone marrow-derived MSC assessed as increase in smad1 mRNA expression at 0.4 uM incubated for 14 days by RT-qPCR analysis; assay type: cell-based; settings: filed as activator, time 14.0 day
Mus musculus [25] = experiment: Anti-osteoporosis activity in OVX-induced osteoporosis ICR mouse model assessed as increase in trabecular number in femur at 20 mg/kg, IG and measured after 12 weeks by micro-CT analysis; assay type: functional, organism-based
Mus musculus [26] = experiment: Anti-osteoporosis activity in OVX-induced osteoporosis ICR mouse model assessed as increase in BV/TV by measuring fold change in femur at 20 mg/kg, IG and measured after 12 weeks by micro-CT analysis; assay type: functional
MSC [27] = experiment: Activation of BMP/Smad signaling pathway in Wistar rat bone marrow-derived MSC assessed as increase in bmp5 mRNA expression at 0.4 uM incubated for 14 days by RT-qPCR analysis; assay type: cell-based; settings: filed as activator, time 14.0 day
RAW264.7 [28] = experiment: Inhibition of RANK/RANKL/OPG signaling pathway in mouse RAW264.7 cells assessed as decrease in RANKL-stimulated NFATc-1 protein expression level at 1 uM after 5 days by Western blot analysis; assay type: cell-based; settings: time 5.0 day
MSC [29] = experiment: Induction of osteogenesis in Wistar rat bone marrow-derived MSC assessed as increase in ALP at 0.4 uM measured after 1 week with fresh culture medium replacement for every 3 days by ALP staining based analysis; assay type: functional, cell-based; settings: time 1.0 weeks
[30] = Cytotoxicity against Wistar rat bone marrow-derived MSC assessed as inhibition of cell viability at 10 uM after 72 hrs by MTS assay relative to control; assay type: toxicity, cell-based; settings: bone marrow-derived mesenchymal stem cells (MSC), read-out: INH
[31] = Cytotoxicity against Wistar rat bone marrow-derived MSC assessed as reduction in cell viability at 0.4 to 2 uM after 72 hrs by MTS assay; assay type: toxicity, cell-based; settings: dose 0.4-2 µM
Mus musculus [32] = experiment: Anti-osteoporosis activity in OVX-induced osteoporosis ICR mouse model assessed as increase in trabecular thickness by measuring fold change in femur at 20 mg/kg, IG and measured after 12 weeks by micro-CT analysis; assay type: functional
Mus musculus [33] = experiment: Anti-osteoporosis activity in OVX-induced osteoporosis ICR mouse model assessed as increase in bone mineral density by measuring fold change in femur at 20 mg/kg, IG and measured after 12 weeks by micro-CT analysis; assay type: functional
Mus musculus [34] = experiment: Anti-osteoporosis activity in OVX-induced osteoporosis ICR mouse model assessed as increase in trabecular number by measuring fold change in femur at 20 mg/kg, IG and measured after 12 weeks by micro-CT analysis; assay type: functional
RAW264.7 [35] = experiment: Inhibition of RANKL-induced osteoclastogenesis in mouse RAW264 cells assessed as decrease in number of osteoclast at 1 to 10 uM incubated for 5 days by TRAP staining based microscopic analysis; assay type: functional, cell-based; settings: dose 1-10 µM, time 5.0 day

COc1ccc(-c2coc3c4c(ccc3c2=O)OCN(C2CCCCC2)C4)cc1
fold change (FC) [1]: 0.8
Activity [2]: Non-Toxic

CCCCCCCCNCc1c(O)ccc2c(=O)c(-c3ccc(OC)cc3)coc12
fold change (FC) [1]: 1.1
Activity [2]: Non-Toxic

COc1ccc(-c2coc3cc(O)ccc3c2=O)cc1 [FORMONONETIN]
fold change (FC) [3]: 1.4
Activity (MSC [4]): Active
Activity (RAW264.7 [5]): 66
Activity (MSC [6]): Active

COc1ccc(-c2coc3c4c(ccc3c2=O)OCN(Cc2ccoc2)C4)cc1
Activity (MSC [7]): Active
fold change (FC) (Mus musculus [8]): 15.2
Activity (Mus musculus [9]): inactive
Activity (MSC [10]): Active
Activity (RAW264.7 [11]): 29
inhibition (RAW264.7 [12]): Active
Activity (RAW264.7 [13]): Non-Toxic
fold change (FC) (Mus musculus [14]): 2.17
fold change (FC) [1]: 2.3
Activity (MSC [15]): Active
fold change (FC) (Mus musculus [16]): 1.9
fold change (FC) (Mus musculus [17]): 9.25
inhibition (RAW264.7 [18]): Active
Activity (RAW264.7 [5]): 30
Activity (RAW264.7 [19]): 24
Activity (Mus musculus [20]): 37%
Activity [2]: Non-Toxic
inhibition (RAW264.7 [21]): Active
Activity (MSC [22]): Active
Activity (MSC [23]): Active
Activity (MSC [24]): Active
Activity (Mus musculus [25]): inactive
fold change (FC) (Mus musculus [26]): 2.13
Activity (MSC [27]): Active
inhibition (RAW264.7 [28]): Active
Activity (MSC [29]): Active

COc1ccc(-c2coc3c(C=O)c(O)ccc3c2=O)cc1
cytotoxicity at 72 h, 10 µM [30]: 15.5%
fold change (FC) [1]: 1.3
Activity [31]: Non-Toxic

CCCCCCN1COc2ccc3c(=O)c(-c4ccc(OC)cc4)coc3c2C1
fold change (FC) [1]: 1.2
Activity [2]: Non-Toxic

CC(C)Oc1ccc2c(=O)c(-c3ccccc3)coc2c1 [IPRIFLAVONE]
fold change (FC) (Mus musculus [32]): 1.17
fold change (FC) (Mus musculus [8]): 1.9
Activity (Mus musculus [9]): inactive
Activity (Mus musculus [20]): inactive
fold change (FC) (Mus musculus [33]): 3.3
Activity (Mus musculus [25]): inactive
fold change (FC) (Mus musculus [26]): 2.3

COc1ccc(-c2coc3c4c(ccc3c2=O)OCN(Cc2ccccc2)C4)cc1
fold change (FC) [1]: 1
Activity [2]: Non-Toxic

CCCCN1COc2ccc3c(=O)c(-c4ccc(OC)cc4)coc3c2C1
Activity (MSC [7]): Active
fold change (FC) (Mus musculus [8]): 10.3
Activity (Mus musculus [9]): 63%
inhibition (RAW264.7 [12]): inactive
Activity (RAW264.7 [13]): Non-Toxic
fold change (FC) (Mus musculus [14]): 1.94
fold change (FC) [1]: 1.9
fold change (FC) (Mus musculus [16]): 1.51
fold change (FC) (Mus musculus [17]): 6.47
inhibition (RAW264.7 [18]): inactive
fold change (FC) (Mus musculus [34]): 1.42
Activity (Mus musculus [20]): 43%
Activity [2]: Non-Toxic
inhibition (RAW264.7 [21]): inactive
fold change (FC) (Mus musculus [33]): 3.3
fold change (FC) (Mus musculus [26]): 2.2
inhibition (RAW264.7 [28]): inactive
inhibition (RAW264.7 [35]): inactive
Activity (MSC [29]): Active
